The values that follow come from PubChem BioAssay (NCI).

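Briefly, cells in 96-well plates were exposed to five compound concentrations for 48 h, and endpoints were estimated by linear interpolation. Here, GI50 denotes the concentration required for 50% inhibition of growth. TGI is the concentration that stops growth completely.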 A value given as a limit tells only on which side of the number the result lay.

Among the test systems are MCF7 breast; UACC-257 melanoma; NCI-H23 lung; HS 578T breast; HT29 colon; DU-145 prostate; NCI-H460 lung; 786-0 renal; NCI/ADR-RES ovarian; PC-3 prostate.
Common to all, as to assay: NCI anticancer screen, dose series, 48 h

As for `COc1cc2c(c(OC)c1)C(=O)O[C@H](C)CCCC/C=C/C2`, the TGI in the assay on MCF7 breast is > 32.6 µM; with UACC-257 melanoma, > 33.9 µM; in the assay on NCI-H23 lung it was > 100 µM; with HS 578T breast, > 100 µM; with HT29 colon, > 71.8 µM; in the assay with DU-145 prostate it was 27.1 µM. Moreover, the TGI was > 32.6 µM with NCI-H460 lung, 27.5 µM with 786-0 renal and > 77.2 µM in the assay on NCI/ADR-RES ovarian.
As to `O=c1c2cc(Br)ccc2ncn1COCc1ccccc1`, the TGI is > 100 µM in the assay on MCF7 breast; > 100 µM with UACC-257 melanoma; > 1 µM in the assay with HT29 colon; > 100 µM with DU-145 prostate; > 100 µM with 786-0 renal; > 1 µM with NCI/ADR-RES ovarian.
For `COc1cc(CNC(=S)CCCCCCCCCCC(C)C)ccc1O`, the TGI in the assay with MCF7 breast was > 100 µM; in the assay with UACC-257 melanoma, > 100 µM; in the assay with NCI-H23 lung, > 100 µM; in the assay with HS 578T breast, 83.7 µM; in the assay with HT29 colon, > 100 µM; with DU-145 prostate, > 100 µM. The TGI with NCI-H460 lung, with 786-0 renal and with NCI/ADR-RES ovarian was > 100 µM throughout.
As for `CC(C)(CN1CCCCC1)C(/C=C/c1ccccc1)=N\NC(=O)N/N=C(/C=C/c1ccccc1)C(C)(C)CN1CCCCC1`, the TGI with MCF7 breast was determined as 3.53 µM; in the assay on UACC-257 melanoma, 3.1 µM; with NCI-H23 lung it was 4.68 µM; in the assay on HS 578T breast, 5.92 µM; in the assay with HT29 colon, 2.53 µM; in the assay on PC-3 prostate it was 7.7 µM. The results for the TGI in the assay with NCI-H460 lung, in the assay with 786-0 renal and in the assay on NCI/ADR-RES ovarian were 2.67 µM, 2.78 µM and 4.01 µM, respectively.
Take `COc1cc(S(=O)(=O)Nc2ccc(-c3csc(/N=C\c4ccccc4)n3)cc2)ccc1Cl`: the TGI in the assay on MCF7 breast was 49.9 µM; in the assay with NCI-H23 lung it was > 100 µM; in the assay with HS 578T breast, > 100 µM; with HT29 colon, > 100 µM; with DU-145 prostate it was > 100 µM; with PC-3 prostate it was > 100 µM. The TGI with 786-0 renal and with NCI/ADR-RES ovarian was > 100 µM in each case.
`COC(=O)[C@@]1(C)CCC[C@]2(C(=O)O)C3Cc4occc4[C@H](C)[C@@H]3CCC21` (stereo partly specified): the TGI in the assay with NCI-H23 lung was > 100 µM; in the assay with HS 578T breast it was > 100 µM; with HT29 colon, 91.8 µM; with DU-145 prostate it was > 100 µM; with PC-3 prostate it was 96.9 µM; in the assay on NCI-H460 lung, > 100 µM. The TGI is > 100 µM in the assay on 786-0 renal and 82 µM with NCI/ADR-RES ovarian.
Consider `Cn1c2ccc(C3=NCCN3)cc2c2cc(C3=NCCN3)ccc21`, for which the TGI in the assay with UACC-257 melanoma, in the assay with NCI-H23 lung, with HS 578T breast, in the assay on HT29 colon, in the assay with DU-145 prostate and in the assay with PC-3 prostate was > 100 µM throughout. Further, the TGI in the assay on NCI-H460 lung is 25.9 µM; in the assay on 786-0 renal it was > 100 µM; with NCI/ADR-RES ovarian it was > 100 µM.
For `COC(=O)[C@](C)(Cc1ccccc1)NC(=O)[C@@H](C)N1[C@@H](c2ccccc2)COC1(C)C`, the TGI in the assay on MCF7 breast, with UACC-257 melanoma, in the assay on NCI-H23 lung, in the assay on HS 578T breast, in the assay on HT29 colon and in the assay on PC-3 prostate was > 100 µM throughout. Moreover, the TGI in the assay with NCI-H460 lung, with 786-0 renal and with NCI/ADR-RES ovarian was > 100 µM in each case.
Consider `Cc1nc2c(n1-c1ccccc1)C(=O)c1ccccc1C2=O`, for which the TGI in the assay with UACC-257 melanoma was 51.5 µM; in the assay on NCI-H23 lung it was > 100 µM; with HT29 colon, > 100 µM; in the assay with NCI-H460 lung, > 100 µM; in the assay on 786-0 renal it was > 100 µM.
On to `Cc1nc(Nc2nc3ccccc3[nH]2)nc(Cl)c1CCCl`, for which the TGI in the assay on UACC-257 melanoma, in the assay on NCI-H23 lung, with HS 578T breast, with HT29 colon, in the assay with DU-145 prostate and in the assay on PC-3 prostate was > 100 µM in each case. In addition, the TGI in the assay on NCI-H460 lung, with 786-0 renal and in the assay with NCI/ADR-RES ovarian was > 100 µM throughout.
Take `CC1(C)C=[N+]([O-])C(C)(C)N1O`: the TGI in the assay with MCF7 breast, with UACC-257 melanoma, in the assay with NCI-H23 lung, in the assay on HT29 colon, in the assay on DU-145 prostate and with PC-3 prostate was > 10 µM each time. In addition, the TGI with NCI-H460 lung, in the assay on 786-0 renal and with NCI/ADR-RES ovarian was > 10 µM throughout.
In the case of `O=C(O)Cc1ccccc1CCc1ccccc1Cl`, the TGI in the assay on UACC-257 melanoma, in the assay on NCI-H23 lung, in the assay with HT29 colon, with NCI-H460 lung and in the assay with 786-0 renal was > 100 µM throughout.
With `CCOC(=O)CCC(NC(=O)OCc1ccccc1)C(=O)NC(CCC(=O)OCC)C(=O)NC(CCC(=O)OCC)C(=O)NNC(=O)OC(C)(C)C` (stereo unspecified), the TGI in the assay with MCF7 breast, with UACC-257 melanoma, with NCI-H23 lung, in the assay on HS 578T breast, in the assay with HT29 colon and in the assay with PC-3 prostate was > 100 µM in each case. Further, the TGI with NCI-H460 lung and with 786-0 renal was > 100 µM each time.
As to `CCOC(=O)c1c(N)sc2c1C(C(=O)OCC)CCC2` (stereo unspecified), the TGI in the assay with MCF7 breast, with UACC-257 melanoma, with NCI-H23 lung, in the assay on HS 578T breast, in the assay on HT29 colon and in the assay with PC-3 prostate was > 100 µM in each case. In addition, the TGI in the assay on NCI-H460 lung and in the assay on 786-0 renal was > 100 µM each time.
Regarding `NNC(=O)Cn1ccnn1`, the TGI in the assay with MCF7 breast, with UACC-257 melanoma, in the assay with NCI-H23 lung, in the assay on HT29 colon, in the assay on DU-145 prostate and in the assay on PC-3 prostate was > 100 µM throughout. In addition, the TGI in the assay on NCI-H460 lung, with 786-0 renal and with NCI/ADR-RES ovarian was > 100 µM each time.
For `Cc1cc2nc(-c3c(N)ncc(C#N)c3-c3ccc(Cl)cc3)[nH]c2cc1C`, the GI50 in the assay with MCF7 breast is 9.34 µM; in the assay with UACC-257 melanoma, 11.4 µM; with NCI-H23 lung, 8.1 µM; in the assay on HS 578T breast, 12 µM; in the assay on HT29 colon it was 6.06 µM; in the assay with DU-145 prostate, 5680 nM. In addition, the GI50 in the assay with PC-3 prostate is 6.59 µM; with NCI-H460 lung, 30.4 µM; with NCI/ADR-RES ovarian it was 15.7 µM. In addition, the TGI was > 100 µM in the assay on MCF7 breast; 82.6 µM with UACC-257 melanoma; 30.7 µM in the assay with NCI-H23 lung; > 100 µM in the assay on HS 578T breast; > 100 µM in the assay on HT29 colon; 27.1 µM in the assay on DU-145 prostate. The TGI was 39.3 µM in the assay on PC-3 prostate, > 100 µM in the assay on NCI-H460 lung and > 100 µM with NCI/ADR-RES ovarian.
Regarding `C[C@]12CCC(=O)C=C1CC[C@@H]1[C@@H]2[C@@H](O)C[C@@]2(C)[C@H]1CC[C@]2(O)C(=O)COC(=O)CCC1CCCC1`, the TGI with UACC-257 melanoma, in the assay with NCI-H23 lung, in the assay on HT29 colon, in the assay on NCI-H460 lung and with 786-0 renal was > 100 µM each time.
`CCCCCCCCCCCCCCCCCCNC(=O)OCC(CNS(=O)(=O)CCC[n+]1cccc2ccccc21)COC` (stereo unspecified): the TGI in the assay with MCF7 breast is 3.68 µM; in the assay with UACC-257 melanoma it was 8.24 µM; in the assay with NCI-H23 lung, 5.6 µM; with HS 578T breast, 5.35 µM; in the assay with DU-145 prostate, 34.3 µM; in the assay on PC-3 prostate it was 4.84 µM. The figures for the TGI with NCI-H460 lung, in the assay on 786-0 renal and in the assay with NCI/ADR-RES ovarian were > 100 µM, > 43.5 µM and 34.2 µM, respectively.
In the case of `O=c1c(O)cccn1C1OC(CO)C(O)C1O` (stereo unspecified), the TGI in the assay with UACC-257 melanoma, in the assay with NCI-H23 lung, with HT29 colon, with NCI-H460 lung and in the assay with 786-0 renal was > 100 µM throughout.
Turning to `C[PH+](c1nc2ccccc2nc1[PH+](C)C(C)(C)C)C(C)(C)C.C[PH+](c1nc2ccccc2nc1[PH+](C)C(C)(C)C)C(C)(C)C.[Au+].[Cl-]` (stereo unspecified), the GI50 in the assay with UACC-257 melanoma was 0.0359 µM; in the assay with NCI-H23 lung it was 0.0261 µM; in the assay on HS 578T breast, 0.0447 µM; in the assay with HT29 colon it was 0.0294 µM; with DU-145 prostate, 40.1 nM; in the assay with PC-3 prostate, 0.0286 µM. The TGI was found to be 0.278 µM with UACC-257 melanoma; 0.104 µM in the assay with NCI-H23 lung; 1.75 µM in the assay on HS 578T breast; 0.374 µM with DU-145 prostate; 0.144 µM in the assay with PC-3 prostate.
For the compound `N#C/C(C(=O)Nc1ccccc1)=C(/N)N1CCCCC1`, the TGI in the assay on MCF7 breast, in the assay with UACC-257 melanoma, in the assay on NCI-H23 lung, in the assay on HT29 colon, in the assay with DU-145 prostate and in the assay on PC-3 prostate was > 100 µM in each case. The TGI with NCI-H460 lung, in the assay on 786-0 renal and in the assay on NCI/ADR-RES ovarian was > 100 µM in each case.
Turning to `COc1ccc2ccccc2c1CN1CCOCCOCCN(Cc2c(OC)ccc3ccccc23)CCOCCOCC1`, the TGI was 65.5 µM with UACC-257 melanoma; > 100 µM in the assay with NCI-H23 lung; > 44 µM in the assay on HT29 colon; > 100 µM in the assay with NCI-H460 lung; > 46.4 µM in the assay with 786-0 renal.
Take `Cc1ccc(/C=C2/NC(=S)SC2=O)cc1`: the TGI is > 100 µM in the assay on MCF7 breast; > 100 µM in the assay on UACC-257 melanoma; 64.8 µM with NCI-H23 lung; > 100 µM with HT29 colon; > 100 µM in the assay on DU-145 prostate; > 100 µM in the assay with PC-3 prostate. Besides, the TGI was 50.4 µM in the assay with NCI-H460 lung, > 100 µM with 786-0 renal and > 100 µM in the assay with NCI/ADR-RES ovarian.
